Columns and labels:
Assay in all cases: drug sensitivity score (DSS) from 5-point dose-response viability curve (DSS (area-under-curve based score)); higher = more sensitive (stronger growth inhibition or killing); extreme values may be limits of the assay
Settings in all cases: exposure time: 72 h; concentration range: 5 concentrations over 10,000-fold range
COV362 = tested on: COV362
In short: (§1)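 Each cell line and drug received a drug sensitivity score from Breeze software, where higher means more sensitive. Zero stands for no response. Scores came from CellTiter-Glo viability readings of ovarian cancer and normal ovarian cells, 1,500 per well in 384-well plates, after 3 days at 37°C, 5% CO2 with drugs at five concentrations over a 10,000-fold range.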

OV90 = tested on: OV90
In short: as §1

Kuramochi = tested on: Kuramochi
In short: as §1

CAOV3 = tested on: CAOV3
In short: as §1

HOSE2C = tested on: HOSE2C
In short: as §1

HOSE1C = tested on: HOSE1C
In short: as §1

OVCAR5 = tested on: OVCAR5
In short: as §1

OVCAR8 = tested on: OVCAR8
In short: as §1

COV318 = tested on: COV318
In short: as §1

Ovsaho = tested on: Ovsaho
In short: as §1

OVCAR4 = tested on: OVCAR4
In short: as §1

JHOS2 = tested on: JHOS2
In short: as §1

Row | Compound | drug sensitivity score (COV362) | drug sensitivity score (OV90) | drug sensitivity score (Kuramochi) | drug sensitivity score (CAOV3) | drug sensitivity score (HOSE2C) | drug sensitivity score (HOSE1C) | drug sensitivity score (OVCAR5) | drug sensitivity score (OVCAR8) | drug sensitivity score (COV318) | drug sensitivity score (Ovsaho) | drug sensitivity score (OVCAR4) | drug sensitivity score (JHOS2)
1 | CCC/C=C/C=C/C(=O)O[C@H]1/C(=C/C(=O)OC)C[C@H]2C[C@H]([C@@H](C)O)OC(=O)C[C@H](O)C[C@@H]3C[C@H](OC(C)=O)C(C)(C)[C@](O)(C[C@@H]4C/C(=C/C(=O)OC)C[C@H](/C=C/C(C)(C)[C@]1(O)O2)O4)O3 [Bryostatin 1] | 8.9 | 1.4 | 0 | 0.1 | 1.6 | 10.3 | 0.2 | 0 | 1.4 | 0 | 1.1 | 0
2 | C=CCc1cccc(/C=N/NC(=O)CN2CCN(Cc3ccccc3)CC2)c1O [PAC-1] | 0.4 | 2.6 | 2.1 | 3.2 | 2.7 | 3.1 | 1.7 | 4 | 0.2 | 4 | 3 | 0.7
3 | c1cn2cc(-c3ccc4cn[nH]c4c3)nc(Nc3ccc(N4CCOCC4)cc3)c2n1 [Entospletinib] | 0 | 0 | 0 | 0 | 0 | 0 | 1.3 | 1.7 | 0 | 0 | 0 | 0.1
4 | CC[C@@H](C(=O)[C@@H](C)[C@@H](O)[C@H](C)[C@@H]1O[C@@H]([C@@H](CC)C(=O)O)CC[C@@H]1C)[C@H]1O[C@]2(C=C[C@@H](O)[C@]3(CC[C@@](C)([C@H]4CC[C@](O)(CC)[C@H](C)O4)O3)O2)[C@H](C)C[C@@H]1C [Salinomycin] | 8.2 | 19.4 | 21 | 15.4 | 22.1 | 21.2 | 13.2 | 17.9 | 13.4 | 27.1 | 14.2 | 18.3
5 | CC[C@@H]1C(=O)N(C)c2cnc(Nc3ccc(C(=O)NC4CCN(C)CC4)cc3OC)nc2N1C1CCCC1 [BI 2536] | 2.1 | 15 | 11.4 | 18.3 | 8.7 | 12.5 | 17.7 | 23.5 | 3.9 | 19.7 | 3.9 | 11.9
6 | O=C(Nc1cnn2ccc(N3CCC[C@@H]3c3cc(F)ccc3F)nc12)N1CC[C@H](O)C1 [Larotrectinib] | 0 | 0 | 0 | 0 | 0 | 0 | 0 | 0 | 0 | 0 | 0 | 0
7 | NC(=O)Nc1cc(-c2cccc(F)c2)sc1C(=O)N[C@H]1CCCNC1 [AZD7762] | 7 | 6.4 | 4.2 | 6.1 | 7.8 | 7.4 | 6.6 | 5.2 | 5 | 4 | 7 | 1.9
8 | COc1cc(N2CCC(N3CCN(C)CC3)CC2)ccc1Nc1ncc(Cl)c(Nc2ccccc2P(C)(C)=O)n1 [Brigatinib] | 1.6 | 4 | 3.5 | 3.3 | 2.9 | 0.3 | 3.7 | 0 | 3.5 | 4.3 | 1.7 | 2.1
9 | CN1CC[C@@H](NC(=O)Nc2ccc(C#N)cc2)C[C@@H]1c1nc2ccccc2[nH]1 [Glasdegib] | 0 | 0 | 0 | 0 | 0 | 0 | 0 | 0 | 0 | 0 | 0 | 0
10 | O=C1NC(=O)[C@@H](c2cn3c4c(cccc24)CCC3)[C@@H]1c1c[nH]c2ccccc12 [Tivantinib] | 1.6 | 2.8 | 2.9 | 3.7 | 4.7 | 5.2 | 4 | 4.1 | 1.9 | 4.2 | 1.6 | 3
11 | O=C(NC1CCNCC1)c1n[nH]cc1NC(=O)c1c(Cl)cccc1Cl [AT7519] | 12 | 14.2 | 9.3 | 13.9 | 8 | 16.6 | 13.5 | 15.5 | 6.2 | 8.9 | 9.3 | 18
12 | CNC(=O)c1ccc(N2C(=S)N(c3ccc(C#N)c(C(F)(F)F)c3)C(=O)C2(C)C)cc1F [Enzalutamide] | 0 | 0 | 1.7 | 0 | 0 | 0 | 0.2 | 0 | 0.4 | 2.3 | 0.1 | 0
13 | Cc1cc(Nc2cc(N3CCN(C)CC3)nc(/C=C/c3ccccc3)n2)n[nH]1 [ENMD-2076] | 6.3 | 8.4 | 8.5 | 10.3 | 10.3 | 7.7 | 9.6 | 8 | 4.9 | 8.8 | 5.8 | 5.1
14 | CC(C)n1cnc2c(NCCc3ccc(O)cc3)nc(-c3csc4ccccc34)nc21 [StemRegenin 1] | 2 | 1.2 | 1.3 | 0 | 2.2 | 3.8 | 4.2 | 1.6 | 1.1 | 1.8 | 1.1 | 1
15 | Oc1ccc2c(c1)CC[C@H](c1ccccc1)[C@@H]2c1ccc(OCCN2CCCC2)cc1 [Lasofoxifene] | 0 | 0 | 0.3 | 0 | 0 | 0 | 0 | 0 | 0 | 0 | 0 | 0
16 | O=c1[nH]c(=O)n([C@H]2C[C@H](O)[C@@H](CO)O2)cc1C(F)(F)F [Trifluridine] | 0 | 2.1 | 0 | 3.3 | 0 | 0 | 2.9 | 2.7 | 0 | 2 | 1.1 | 0.6
17 | Cc1cc2c(F)c(Oc3ncnn4cc(OC[C@@H](C)O)c(C)c34)ccc2[nH]1 [Brivanib] | 0 | 0 | 0 | 0 | 0 | 0 | 0 | 0 | 0 | 0 | 0 | 0
18 | Cc1ccc(NS(=O)(=O)c2cccc(C#N)c2)c2[nH]cc(C#N)c12 [E7820] | 0 | 2.7 | 0.8 | 4.8 | 5 | 7.3 | 3.3 | 3.3 | 2.8 | 1.2 | 4.4 | 10.7
19 | CS(=O)(=O)CCNCc1ccc(-c2ccc3ncnc(Nc4ccc(OCc5cccc(F)c5)c(Cl)c4)c3c2)o1 [Lapatinib] | 0 | 0 | 0 | 2.4 | 0 | 0 | 0.7 | 0 | 0 | 0 | 0 | 0
20 | Cc1ccc(Nc2nccc(N(C)c3ccc4c(C)n(C)nc4c3)n2)cc1S(N)(=O)=O [Pazopanib] | 0 | 0 | 0 | 0 | 0 | 0 | 0 | 0 | 0.1 | 0 | 0 | 0
21 | CC(=O)O[C@@]12CO[C@@H]1C[C@H](O)[C@@]1(C)C(=O)[C@H](O)C3=C(C)[C@@H](OC(=O)[C@H](O)[C@@H](NC(=O)OC(C)(C)C)c4ccccc4)C[C@@](O)([C@@H](OC(=O)c4ccccc4)[C@H]21)C3(C)C [Docetaxel] | 9.3 | 15.5 | 16 | 28.7 | 27.6 | 29.3 | 23.4 | 27.7 | 9.5 | 10.3 | 8.1 | 13.9
22 | S=C(NCc1ccc2c(c1)OCO2)N1CCN(c2ncnc3c2oc2ccccc23)CC1 [Amuvatinib] | 0 | 3.2 | 0.2 | 2.1 | 0 | 0 | 1.8 | 7.9 | 0.1 | 0.1 | 0.9 | 0
23 | CN(C)CCCOc1ccc(-c2ccc3ncc4c(c3c2)n(C2CCOCC2)c(=O)n4C)cn1 [AZD0156] | 0 | 1.1 | 0.2 | 1.2 | 0 | 1 | 1.4 | 0 | 0 | 3.2 | 0 | 0
24 | COc1cc(NS(C)(=O)=O)ccc1Nc1c2ccccc2nc2ccccc12 [Amsacrine] | 1 | 7.3 | 0 | 13.7 | 16.7 | 13.7 | 6 | 10 | 0.6 | 5.5 | 0.2 | 3.8
25 | CC(C)Oc1ccc(C(=O)N[C@H](CNC(=O)CN(C)C)Cc2ccc(-c3cn4cccc([C@H](C)O)c4n3)cc2)cc1Cl | 6 | 12 | 9 | 17.5 | 11.1 | 14.1 | 16.3 | 14 | 3.9 | 10.2 | 4.2 | 7.2
26 | COc1ccc(-c2ccc3c(N4CCOC[C@@H]4C)nc(N4CCOC[C@@H]4C)nc3n2)cc1CO [AZD8055] | 6.4 | 20.8 | 15.6 | 15.6 | 16.2 | 20.7 | 18.4 | 17.2 | 13.6 | 16.9 | 17.5 | 14.4
27 | CN(C)CC#Cc1ccc(OCCCc2sc(N3CCc4cccc(C(=O)Nc5nc6ccccc6s5)c4C3)nc2C(=O)O)c(F)c1 | 1.6 | 19.2 | 1.6 | 7.5 | 6.2 | 22.7 | 4.1 | 0 | 1.3 | 10.4 | 3.5 | 1.2
28 | CN1CCc2c(c3ccccc3n2Cc2ccc(C(=O)NO)cc2)C1 [Tubastatin A] | 1.7 | 3.4 | 1.5 | 0.7 | 2.7 | 4.2 | 5.2 | 4.6 | 0.9 | 1 | 1.7 | 1.8
29 | CC(C)(C)Cn1c(N)nc2ccc(-c3[nH]c(C(C)(C)C)nc3-c3ccc(F)cc3)nc21 [Ralimetinib] | 1.4 | 4.1 | 6.6 | 2.9 | 0.5 | 1.1 | 4.3 | 3.1 | 2.6 | 1.8 | 1.1 | 1.8
